What was measured:
Assay type in all cases: in vivo
Indian mallow [1] = assay: Test Example 3: weedkilling efficacy through soil treatment; K: Indian mallow; settings: treatment dosage 315 g/ha
How it was run: (§1)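 Crop and weed responses were judged three weeks after a uniform surface spray of the water-diluted emulsion at the given g/ha rate. Seeds sat beneath about 1.5 cm of sterilized diluvial soil, and boxes stood in a greenhouse at 25 to 30° C.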

corn [2] = assay: Test Example 3: soil treatment, effect on crop; c: corn; settings: treatment dosage 315 g/ha
How it was run: as §1

Italian ryegrass [3] = assay: Test Example 3: weedkilling efficacy through soil treatment; I: Italian ryegrass; settings: treatment dosage 315 g/ha
How it was run: as §1

soybean [4] = assay: Test Example 3: soil treatment, effect on crop; d: soybean; settings: treatment dosage 315 g/ha
How it was run: as §1

redroot pigweed [5] = assay: Test Example 3: weedkilling efficacy through soil treatment; L: redroot pigweed; settings: treatment dosage 315 g/ha
How it was run: as §1

Italian ryegrass [6] = assay: Test Example 4: weedkilling efficacy by foliar treatment; I: Italian ryegrass; settings: treatment dosage 315 g/ha
How it was run: (§2)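 Seeds are spot-sown into sterilized diluvial soil and covered with about 1.5 cm of soil. After 14 days' greenhouse growth at 25 to 30° C, plants are sprayed on stems and leaves with diluted emulsion at the stated g/ha rate, then scored at 3 weeks.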

wheat [7] = assay: Test Example 4: foliar treatment, effect on crop; e: wheat; settings: treatment dosage 315 g/ha
How it was run: as §2

beet [8] = assay: Test Example 3: soil treatment, effect on crop; f: beet; settings: treatment dosage 315 g/ha
How it was run: as §1

chickweed [9] = assay: Test Example 4: weedkilling efficacy by foliar treatment; N: chickweed; settings: treatment dosage 315 g/ha
How it was run: as §2

green foxtail [10] = assay: Test Example 3: weedkilling efficacy through soil treatment; E: green foxtail; settings: treatment dosage 315 g/ha
How it was run: as §1

beet [11] = assay: Test Example 4: foliar treatment, effect on crop; f: beet; settings: treatment dosage 315 g/ha
How it was run: as §2

green foxtail [12] = assay: Test Example 4: weedkilling efficacy by foliar treatment; E: green foxtail; settings: treatment dosage 315 g/ha
How it was run: as §2

oval-leafed pondweed [13] = assay: Test Example 2: weedkilling efficacy, growth period weed treatment in the submerged state; C: oval-leafed pondweed; settings: treatment dosage 252 g/ha
How it was run: (§3)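 Weeds treated at the 1-2 leaf stage by application of diluted emulsion onto floodwater (4 cm depth, alluvial soil) at specified g/ha. Grown in greenhouse at 25 to 30° C; herbicidal effect rated three weeks after treatment.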

corn [14] = assay: Test Example 4: foliar treatment, effect on crop; c: corn; settings: treatment dosage 315 g/ha
How it was run: as §2

wild oat [15] = assay: Test Example 3: weedkilling efficacy through soil treatment; G: wild oat; settings: treatment dosage 315 g/ha
How it was run: as §1

barnyard grass [16] = assay: Test Example 1: weedkilling efficacy, preemergent weed treatment in the submerged state; A: barnyard grass; settings: treatment dosage 252 g/ha
How it was run: (§4)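 Pre-emergence application onto floodwater (4 cm, alluvial soil) on the day of sowing, dose expressed as g/ha from diluted emulsion formulation. Weeds sown with 2.5-leaf transplanted rice as crop; plants held at 25–30 °C in greenhouse and scored against assessment criteria after 3 weeks.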

redroot pigweed [17] = assay: Test Example 4: weedkilling efficacy by foliar treatment; L: redroot pigweed; settings: treatment dosage 315 g/ha
How it was run: as §2

bulrush [18] = assay: Test Example 1: weedkilling efficacy, preemergent weed treatment in the submerged state; B: bulrush; settings: treatment dosage 252 g/ha
How it was run: as §4

black-grass [19] = assay: Test Example 3: weedkilling efficacy through soil treatment; H: black-grass; settings: treatment dosage 315 g/ha
How it was run: as §1

catchweed [20] = assay: Test Example 3: weedkilling efficacy through soil treatment; O: catchweed; settings: treatment dosage 315 g/ha
How it was run: as §1

soybean [21] = assay: Test Example 4: foliar treatment, effect on crop; d: soybean; settings: treatment dosage 315 g/ha
How it was run: as §2

wheat [22] = assay: Test Example 3: soil treatment, effect on crop; e: wheat; settings: treatment dosage 315 g/ha
How it was run: as §1

birds-eye speedwell = assay: Test Example 4: weedkilling efficacy by foliar treatment; p: birds-eye speedwell; settings: treatment dosage 315 g/ha
How it was run: as §2

barnyard grass [23] = assay: Test Example 2: weedkilling efficacy, growth period weed treatment in the submerged state; A: barnyard grass; settings: treatment dosage 252 g/ha
How it was run: as §3

directly sown rice [24] = assay: Test Example 4: foliar treatment, effect on crop; b: directly sown rice; settings: treatment dosage 315 g/ha
How it was run: as §2

black-grass [25] = assay: Test Example 4: weedkilling efficacy by foliar treatment; H: black-grass; settings: treatment dosage 315 g/ha
How it was run: as §2

chickweed [26] = assay: Test Example 3: weedkilling efficacy through soil treatment; N: chickweed; settings: treatment dosage 315 g/ha
How it was run: as §1

transplanted rice = assay: Test Example 1: preemergent weed treatment in the submerged state, effect on crop; a: transplanted rice; settings: treatment dosage 252 g/ha
How it was run: as §4

fig-leafed goosefoot [27] = assay: Test Example 3: weedkilling efficacy through soil treatment; M: fig-leafed goosefoot; settings: treatment dosage 315 g/ha
How it was run: as §1

bulrush [28] = assay: Test Example 2: weedkilling efficacy, growth period weed treatment in the submerged state; B: bulrush; settings: treatment dosage 252 g/ha
How it was run: as §3

crabgrass [29] = assay: Test Example 4: weedkilling efficacy by foliar treatment; D: crabgrass; settings: treatment dosage 315 g/ha
How it was run: as §2

catchweed [30] = assay: Test Example 4: weedkilling efficacy by foliar treatment; O: catchweed; settings: treatment dosage 315 g/ha
How it was run: as §2

directly sown rice [31] = assay: Test Example 3: soil treatment, effect on crop; b: directly sown rice; settings: treatment dosage 315 g/ha
How it was run: as §1

Indian mallow [32] = assay: Test Example 4: weedkilling efficacy by foliar treatment; K: Indian mallow; settings: treatment dosage 315 g/ha
How it was run: as §2

fig-leafed goosefoot [33] = assay: Test Example 4: weedkilling efficacy by foliar treatment; M: fig-leafed goosefoot; settings: treatment dosage 315 g/ha
How it was run: as §2

wild oat [34] = assay: Test Example 4: weedkilling efficacy by foliar treatment; G: wild oat; settings: treatment dosage 315 g/ha
How it was run: as §2

oval-leafed pondweed [35] = assay: Test Example 1: weedkilling efficacy, preemergent weed treatment in the submerged state; C: oval-leafed pondweed; settings: treatment dosage 252 g/ha
How it was run: as §4

crabgrass [36] = assay: Test Example 3: weedkilling efficacy through soil treatment; D: crabgrass; settings: treatment dosage 315 g/ha
How it was run: as §1

SMILES | K (Indian mallow) weedkilling efficacy grade (Indian mallow [1]) | c (corn) effect on crop grade (corn [2]) | I (Italian ryegrass) weedkilling efficacy grade (Italian ryegrass [3]) | d (soybean) effect on crop grade (soybean [4]) | L (redroot pigweed) weedkilling efficacy grade (redroot pigweed [5]) | I (Italian ryegrass) weedkilling efficacy grade (Italian ryegrass [6]) | e (wheat) effect on crop grade (wheat [7]) | f (beet) effect on crop grade (beet [8]) | N (chickweed) weedkilling efficacy grade (chickweed [9]) | E (green foxtail) weedkilling efficacy grade (green foxtail [10]) | f (beet) effect on crop grade (beet [11]) | E (green foxtail) weedkilling efficacy grade (green foxtail [12]) | C (oval-leafed pondweed) weedkilling efficacy grade (oval-leafed pondweed [13]) | c (corn) effect on crop grade (corn [14]) | G (wild oat) weedkilling efficacy grade (wild oat [15]) | A (barnyard grass) weedkilling efficacy grade (barnyard grass [16]) | L (redroot pigweed) weedkilling efficacy grade (redroot pigweed [17]) | B (bulrush) weedkilling efficacy grade (bulrush [18]) | H (black-grass) weedkilling efficacy grade (black-grass [19]) | O (catchweed) weedkilling efficacy grade (catchweed [20]) | further results
CC1=C(c2ccccc2)C(=O)N(C(C)(C)C(=O)Nc2cc(Br)ccn2)CO1 [B-2-30] | 3 (weed kill ratio 40% or more, less than 70%) | 1 (weed kill ratio 5% or more, less than 20%) | 5 (weed kill ratio 90% or more, (practically complete withering)) | 1 (weed kill ratio 5% or more, less than 20%) | 3 (weed kill ratio 40% or more, less than 70%) | 4 (weed kill ratio 70% or more, less than 90%) | 0 (weed kill ratio 5% or less (practically no effect)) | 4 (weed kill ratio 70% or more, less than 90%) | 3 (weed kill ratio 40% or more, less than 70%) | 5 (weed kill ratio 90% or more, (practically complete withering)) | 4 (weed kill ratio 70% or more, less than 90%) | 5 (weed kill ratio 90% or more, (practically complete withering)) | 3 (weed kill ratio 40% or more, less than 70%) | 1 (weed kill ratio 5% or more, less than 20%) | 5 (weed kill ratio 90% or more, (practically complete withering)) | 5 (weed kill ratio 90% or more, (practically complete withering)) | 4 (weed kill ratio 70% or more, less than 90%) | 5 (weed kill ratio 90% or more, (practically complete withering)) | 5 (weed kill ratio 90% or more, (practically complete withering)) | 5 (weed kill ratio 90% or more, (practically complete withering)) | d (soybean) effect on crop grade (soybean [21]): 4 (weed kill ratio 70% or more, less than 90%); e (wheat) effect on crop grade (wheat [22]): 0 (weed kill ratio 5% or less (practically no effect)); P (birds-eye speedwell) weedkilling efficacy grade (birds-eye speedwell): 4 (weed kill ratio 70% or more, less than 90%); A (barnyard grass) weedkilling efficacy grade (barnyard grass [23]): 5 (weed kill ratio 90% or more, (practically complete withering)); b (directly sown rice) effect on crop grade (directly sown rice [24]): 5 (weed kill ratio 90% or more, (practically complete withering)); H (black-grass) weedkilling efficacy grade (black-grass [25]): 3 (weed kill ratio 40% or more, less than 70%); N (chickweed) weedkilling efficacy grade (chickweed [26]): 4 (weed kill ratio 70% or more, less than 90%); a (transplanted rice) effect on crop grade (transplanted rice): 1 (weed kill ratio 5% or more, less than 20%); M (fig-leafed goosefoot) weedkilling efficacy grade (fig-leafed goosefoot [27]): 5 (weed kill ratio 90% or more, (practically complete withering)); B (bulrush) weedkilling efficacy grade (bulrush [28]): 5 (weed kill ratio 90% or more, (practically complete withering)); D (crabgrass) weedkilling efficacy grade (crabgrass [29]): 5 (weed kill ratio 90% or more, (practically complete withering)); O (catchweed) weedkilling efficacy grade (catchweed [30]): 4 (weed kill ratio 70% or more, less than 90%); b (directly sown rice) effect on crop grade (directly sown rice [31]): 4 (weed kill ratio 70% or more, less than 90%); K (Indian mallow) weedkilling efficacy grade (Indian mallow [32]): 4 (weed kill ratio 70% or more, less than 90%); M (fig-leafed goosefoot) weedkilling efficacy grade (fig-leafed goosefoot [33]): 4 (weed kill ratio 70% or more, less than 90%); G (wild oat) weedkilling efficacy grade (wild oat [34]): 3 (weed kill ratio 40% or more, less than 70%); C (oval-leafed pondweed) weedkilling efficacy grade (oval-leafed pondweed [35]): 5 (weed kill ratio 90% or more, (practically complete withering)); D (crabgrass) weedkilling efficacy grade (crabgrass [36]): 5 (weed kill ratio 90% or more, (practically complete withering))
CC1=C(c2ccccc2)C(=O)N(C(C)(C)C(=O)Nc2cc(C(F)(F)F)cc(Cl)n2)CO1 [B-2-37] | 4 (weed kill ratio 70% or more, less than 90%) | 1 (weed kill ratio 5% or more, less than 20%) | 5 (weed kill ratio 90% or more, (practically complete withering)) | 0 (weed kill ratio 5% or less (practically no effect)) | 5 (weed kill ratio 90% or more, (practically complete withering)) | 4 (weed kill ratio 70% or more, less than 90%) | 1 (weed kill ratio 5% or more, less than 20%) | 4 (weed kill ratio 70% or more, less than 90%) | 4 (weed kill ratio 70% or more, less than 90%) | 5 (weed kill ratio 90% or more, (practically complete withering)) | 4 (weed kill ratio 70% or more, less than 90%) | 5 (weed kill ratio 90% or more, (practically complete withering)) | 5 (weed kill ratio 90% or more, (practically complete withering)) | 4 (weed kill ratio 70% or more, less than 90%) | 5 (weed kill ratio 90% or more, (practically complete withering)) | 5 (weed kill ratio 90% or more, (practically complete withering)) | 4 (weed kill ratio 70% or more, less than 90%) | 5 (weed kill ratio 90% or more, (practically complete withering)) | 5 (weed kill ratio 90% or more, (practically complete withering)) | 4 (weed kill ratio 70% or more, less than 90%) | d (soybean) effect on crop grade (soybean [21]): 3 (weed kill ratio 40% or more, less than 70%); e (wheat) effect on crop grade (wheat [22]): 0 (weed kill ratio 5% or less (practically no effect)); P (birds-eye speedwell) weedkilling efficacy grade (birds-eye speedwell): 4 (weed kill ratio 70% or more, less than 90%); A (barnyard grass) weedkilling efficacy grade (barnyard grass [23]): 5 (weed kill ratio 90% or more, (practically complete withering)); b (directly sown rice) effect on crop grade (directly sown rice [24]): 4 (weed kill ratio 70% or more, less than 90%); H (black-grass) weedkilling efficacy grade (black-grass [25]): 4 (weed kill ratio 70% or more, less than 90%); N (chickweed) weedkilling efficacy grade (chickweed [26]): 4 (weed kill ratio 70% or more, less than 90%); a (transplanted rice) effect on crop grade (transplanted rice): 2 (weed kill ratio 20% or more, less than 40%); M (fig-leafed goosefoot) weedkilling efficacy grade (fig-leafed goosefoot [27]): 4 (weed kill ratio 70% or more, less than 90%); B (bulrush) weedkilling efficacy grade (bulrush [28]): 5 (weed kill ratio 90% or more, (practically complete withering)); D (crabgrass) weedkilling efficacy grade (crabgrass [29]): 5 (weed kill ratio 90% or more, (practically complete withering)); O (catchweed) weedkilling efficacy grade (catchweed [30]): 3 (weed kill ratio 40% or more, less than 70%); b (directly sown rice) effect on crop grade (directly sown rice [31]): 3 (weed kill ratio 40% or more, less than 70%); K (Indian mallow) weedkilling efficacy grade (Indian mallow [32]): 4 (weed kill ratio 70% or more, less than 90%); M (fig-leafed goosefoot) weedkilling efficacy grade (fig-leafed goosefoot [33]): 3 (weed kill ratio 40% or more, less than 70%); G (wild oat) weedkilling efficacy grade (wild oat [34]): 3 (weed kill ratio 40% or more, less than 70%); C (oval-leafed pondweed) weedkilling efficacy grade (oval-leafed pondweed [35]): 5 (weed kill ratio 90% or more, (practically complete withering)); D (crabgrass) weedkilling efficacy grade (crabgrass [36]): 5 (weed kill ratio 90% or more, (practically complete withering))
